In publication PMC13626384 (Journal of medicinal chemistry, 2025):
Read-outs that look alike come from different tables or passages of the source. Marks after values point to notes of the source that are not given here. Blank lines part the entries; values can stand above or below the compound they belong to.

Experiments:
[1] = test system: D283-med cell line; test: Cytotoxicity against D283-med cells; format: cell-based, human
[2] = test system: SF188 cell line; test: Cytotoxicity against SF188 cells; format: cell-based, human
[3] = Plasma stability; format: in vitro ADME; settings: for Plasma Stability % remaining: mouse plasma
[4] = test system: Caco-2 cells; settings: ref Literature data; cited from earlier work
[5] = in vitro; settings: mouse liver microsomes
[6] = Liver microsomal stability; settings: mouse liver microsomes
[7] = PAMPA-BBB permeability assay; settings: PAMPA-BBB; for recovery / Papp: PAMPA; for recovery: % Recovery; for Papp: Mean Permeability
[8] = test system: H460 cell line; test: Cytotoxicity against H460 cells; format: cell-based; settings: read-out: H460 IC50; non-small cell lung cancer cell line
[9] = test system: human foreskin fibroblasts (HFF-1) cell line; test: Cytotoxicity against HFF-1 cells; format: cell-based; settings: read-out: HFF-1 IC50; non-cancerous fibroblasts
[10] = test system: Caco-2 cells; test: Caco-2 cell permeability and efflux; format: in vitro ADME, human
[11] = molecular target: human immunoproteasome (i20S) β5 (Homo sapiens, UniProt P20618+P28062); test: Proteasome subunit inhibition, i20S β5; format: biochemical
[12] = molecular target: human immunoproteasome (i20S) β2 (Homo sapiens, UniProt P40306+P49720); test: Proteasome subunit inhibition, i20S β2; format: biochemical
[13] = molecular target: human immunoproteasome (i20S) β1 (Homo sapiens, UniProt P28065+P40306); test: Proteasome subunit inhibition, i20S β1; format: biochemical
[14] = In vivo pharmacokinetics, plasma and brain; set-up: species or system Male C57BL/6 mice; settings: mice
[15] = Caco-2 cell permeability and efflux; format: in vitro ADME, human; settings: human; for Papp A→B / Papp B→A: Caco-2
[16] = test system: P-gp; test: Caco-2 cell permeability and efflux; format: in vitro ADME, human; settings: human, Caco-2
[17] = molecular target: human constitutive proteasome (c20S) β5 (Homo sapiens, UniProt P20618+P28074); test: Proteasome subunit inhibition, c20S β5; format: biochemical
[18] = molecular target: human constitutive proteasome (c20S) β2 (Homo sapiens, UniProt P49720+Q99436); test: Proteasome subunit inhibition, c20S β2; format: biochemical
[19] = molecular target: human constitutive proteasome (c20S) β1 (Homo sapiens, UniProt P28072+Q99436); test: Proteasome subunit inhibition, c20S β1; format: biochemical
[20] = Whole blood stability; format: in vitro ADME; settings: whole blood incubation, 2 hours
[21] = test system: mice; test: Toxicity observation in the PK study; format: in vivo; settings: 1 mg/kg i.v.
[22] = Homo sapiens, D283 Med, read-out: D283-med IC50, medulloblastoma cell line
[23] = Homo sapiens, SF-188, read-out: SF188 IC50, glioblastoma cell line
[24] = read-out: D283-med IC50, medulloblastoma cell line
[25] = Caco-2, % Recovery (A-B), Caco-2, A-B direction
[26] = Caco-2, % Recovery (B-A), Caco-2, B-A direction

Compound: CC(C)C[C@H](NC(=O)[C@H](CCc1ccccc1)NC(=O)CN1CCOCC1)C(=O)N[C@@H](Cc1ccccc1)C(=O)N[C@@H](CC(C)C)C(=O)[C@@]1(C)CO1 [Carfilzomib, reference compound]
IC50 [1, 22]: 205 ± 24 nM
IC50 [2, 23]: 706 ± 82 nM
remaining at 2 h ([3]; mouse, plasma, Plasma Stability % remaining, after 2 hr): 99%
Efflux Ratio [4]: 28.6*
half-life [5]: < 5 min
Microsomal Stability Clearance Category [6]: High
recovery [7]: 41%
Papp [7]: 1.43 ×10⁻⁶ cm/s

Compound: CC(C)C[C@H](NC(=O)[C@@H]1Cc2c(F)c(F)c(c(F)c2F)S(=O)(=O)c2cccc(c2)CC(=O)N[C@@H](C(C)C)C(=O)N1)C(=O)[C@@]1(C)CO1 [Compound 11, (5S,8S)-3^2,3^3,3^5,3^6-Tetrafluoro-8-isopropyl-N-((S)-4-methyl-1-((R)-2-methyloxiran-2-yl)-1-oxopentan-2-yl)-7,10-dioxo-2-thia-6,9-diaza-1(1,3),3(1,4)-dibenzenacycloundecaphane-5-carboxamide 2,2-dioxide]
IC50 [1, 24]: 6 ± 2 nM
IC50 ([2]; read-out: SF188 IC50, glioblastoma cell line): 9.8 ± 1.2 nM
IC50 [8]: 79 ± 20 nM
IC50 [9]: 85 ± 7 nM
Plasma Stability % remaining ([3]; after 2 hr): 88%
% Recovery (A-B) ([10]; Caco-2, A-B direction): 91%
% Recovery (B-A) ([10]; Caco-2, B-A direction): 97%
Pe (A-B) ([10]; Caco-2, apical to basolateral): 7.2 10^−6 cm/sec
Pe (B-A) ([10]; Caco-2, basolateral to apical): 45.4 10^−6 cm/sec
IC50 ([11]; read-out: i20S β5 IC50 ± SD, read 60 to 90 minutes after start): 830 ± 260 nM
IC50 ([12]; read-out: i20S β2 IC50 ± SD, read 60 to 90 minutes after start): 829 ± 187 nM
IC50 ([13]; read-out: i20S β1 IC50 ± SD, read 60 to 90 minutes after start): 379 ± 47.7 nM
Plasma half-life ([14]; 10 mg/kg i.v., with and without tariquidar): 72 to 84 min
Brain tissue concentration ([14]; 10 mg/kg i.v., with and without tariquidar, 30 minutes and 2 hours): no quantifiable concentrations were detected
Microsomal Stability Clearance Category [6]: Medium
Microsomal Stability mCLint [6]: 43 µL/min/mg
Microsomal Stability t1/2 [6]: 32 min
% Recovery [7]: 64%
Mean Permeability [7]: 2.15 10^−6 cm/sec

Compound: CC(C)C[C@H](NC(=O)[C@@H]1CS(=O)(=O)CCCCCCCCCC(=O)N[C@@H](C(C)C)C(=O)N1)C(=O)[C@@]1(C)CO1 [Compound 40, (3R,6S)-6-Isopropyl-N-((S)-4-methyl-1-((R)-2-methyloxiran-2-yl)-1-oxopentan-2-yl)-5,8-dioxo-1-thia-4,7-diazacycloheptadecane-3-carboxamide 1,1-dioxide]
IC50 [1, 22]: 2.3 nM
IC50 [1, 24]: 2.26 ± 0.26 nM
IC50 [2, 23]: 6.7 ± 0.3 nM
Plasma Stability % remaining ([3]; after 2 hr): 94 after 2 hr %
remaining at 5 h ([3]; mouse, plasma, Plasma Stability % remaining, after 5 hr): > 75%
Papp A→B [15]: 10.1 ×10⁻⁶ cm/s
Papp B→A [15]: 48.8 ×10⁻⁶ cm/s
recovery [15, 25]: 91%
recovery [15, 26]: 89%
Efflux Ratio [16]: 4.8
IC50 [17]: 7.5 ± 0.6 nM
IC50 [18]: 39.4 ± 6.3 nM
IC50 [19]: 767 ± 177 nM
IC50 [11]: 16 ± 2 nM
IC50 [12]: 23 ± 1.6 nM
IC50 [13]: 144 ± 9.2 nM
Levels in brain tissues ([14]; 1 mg/kg i.v.): failed to achieve detectable levels
Plasma concentrations after dosing ([14]; 1 mg/kg i.v.): negligible plasma concentrations beyond 5 minutes post-dosing
Plasma concentrations after dosing ([14]; 10 mg/kg): did not exhibit significant plasma concentrations beyond 5 minutes post-administration
Whole blood retention [20]: ~ 15%
Signs of toxicity [21]: lack of toxicity
half-life [5]: < 5 min
microsomal CLint [5]: 323 µL/min/mg
Microsomal Stability Clearance Category [6]: High
recovery [7]: 77%
Papp [7]: 3.34 ×10⁻⁶ cm/s

Papp A→B [15]: 0.75 ×10⁻⁶ cm/s
Papp B→A [15]: 20.8 ×10⁻⁶ cm/s
recovery [15, 25]: 102%
recovery [15, 26]: 101%
Efflux Ratio [16]: 27.6
IC50 [17]: 390 ± 50.7 nM
IC50 [18]: 110 ± 20.3 nM
IC50 [19]: 484 ± 33 nM
IC50 [11]: 4900 ± 2160 nM
IC50 [12]: 277 ± 49.1 nM
IC50 [13]: 49 ± 2.2 nM
recovery [7]: 98%
Papp [7]: 0.22 ×10⁻⁶ cm/s
Compound: CC(C)C[C@H](NC(=O)[C@@H]1CSCCOCCOCCC(=O)N[C@@H](C(C)C)C(=O)N1)C(=O)[C@@]1(C)CO1 [Compound 41, (9R,12S)-12-Isopropyl-N-((S)-4-methyl-1-((R)-2-methyloxiran-2-yl)-1-oxopentan-2-yl)-11,14-dioxo-1,4-dioxa-7-thia-10,13-diazacyclohexadecane-9-carboxamide]
IC50 [1, 22]: 90 ± 8 nM
IC50 [2, 23]: 113 ± 9 nM
